For data set [1], the system named is Agrobacterium strain EHA105. The data set is described as follows: Agrobacterium growth assay on solid minimal medium, EHA105. Format: cell-based. Set-up: key: a score of zero (0) indicating no visible colonies; 1+ indicating a few isolated colonies; ++: progressing up to 5+; +++: progressing up to 5+; ++++: progressing up to 5+; +++++: 5+ indicating a confluent lawn. Particulars: EHA105 plated at 1 × 10^4, after 3 days. Here is the method:
(§1) For all Agrobacterium growth-assay experiments, standard Agrobacterium minimal medium was used, with no additives as a control treatment, or with the addition of either 5-fluorocytosine, 5-fluorouracil or thymidine. To begin these tests, experiments were conducted to test for growth of wild-type and mutant AGL0 Agrobacterium strains on either 5-fluorocytosine (5-fluorocytosine, the non-toxic substrate of the CODA protein) or 5-fluorouracil (5-fluorouracil, the toxic product).

Data set [2] has as its system Agrobacterium strain EHA101. Put plainly: Agrobacterium growth assay on solid minimal medium, EHA101. Format: cell-based. Set-up: key: a score of zero (0) indicating no visible colonies; 1+ indicating a few isolated colonies; ++: progressing up to 5+; +++: progressing up to 5+; ++++: progressing up to 5+; +++++: 5+ indicating a confluent lawn. Particulars: EHA101 plated at 1 x 10^4, after 3 days. Here is the method:
as §1

In data set [3] the test system is Agrobacterium strain LBA4404. Put plainly: Agrobacterium growth assay on solid minimal medium, LBA4404. Format: cell-based. Set-up: key: a score of zero (0) indicating no visible colonies; 1+ indicating a few isolated colonies; ++: progressing up to 5+; +++: progressing up to 5+; ++++: progressing up to 5+; +++++: 5+ indicating a confluent lawn. Particulars: LBA4404 plated at 1 × 10^4, after 3 days. Here is the method:
as §1

The test system of data set [4] is immature embryos of inbred PHH5G. The data set is described as follows: Callus initiation from corn immature embryos, inbred PHH5G. Format: cell-based. As to conditions: for PHH5G: embryos producing a callus response / embryos plated / Embryo with culture - Response (callus initiation frequency): 18 d cultured on 13152C; for Embryo with culture - Response (callus initiation frequency): PHH5G. Here is the method:
(§2) Agrobacterium was tolerant of the substrate (5-fluorocytosine) and was inhibited by low levels of the converted product (5-fluorouracil). An experiment was performed to determine whether corn immature embryos and growing callus were sensitive to the substrate, 5-fluorocytosine. Immature embryos of two inbred lines ([…] or PHH5G, representative non-stiff-stalk and stiff-stalk Pioneer Hi-Bred inbreds) were plated onto appropriate callus culture media (see Table 6) supplemented with 0, 100, […]

The test system of data set [5] is immature embryos of inbred HC69. The data set is described as follows: Callus initiation from corn immature embryos, inbred HC69. Format: cell-based. As to conditions: for HC69: embryos producing a callus response / embryos plated / Embryo with culture - Response (callus initiation frequency): 18 d cultured on 13152C; for Embryo with culture - Response (callus initiation frequency): HC69. Here is the method: as §2

In data set [6] the test system is Agrobacterium strain AGL0. The data set is described as follows: Agrobacterium growth assay on solid minimal medium, wild-type AGL0. Format: cell-based. Set-up: key to Growth score: a score of zero (0) indicating no visible colonies; 1+ indicating a few isolated colonies; ++: progressing up to 5+; +++: progressing up to 5+; ++++: progressing up to 5+; +++++: 5+ indicating a confluent lawn. As to the method: as §1
(§3) In Table 4, results of a more detailed kill-curve for strain AGL0 on 5-fluorouracil are shown. […] Finally, a third experiment was performed using either wild-type AGL0 or an auxotrophic mutant of AGL0 in which the gene encoding thymidylate synthase was inactivated, rendering the bacteria incapable of growth in the absence of thymidine (this strain was referred to as AGL0 THY−). The two strains were plated at high densities (10^6 or 10^8 CFU/plate) onto medium containing 0, 1 or 3 μg/ml 5-fluorouracil, with each of these three treatments containing either 0 or 50 mg/l thymidine.
(§4) The newly developed AGL0 mutant strain (THY−/codA+, see Example 1) was plated on varying concentrations of 5-fluorocytosine to assess growth. This strain, along with wild-type AGL0 were cultured overnight in liquid medium, diluted to 10^7 CFU and then 100 μl of suspension was plated onto minimal Agro medium+/− thymidine, with either 0, 100, 200 or 300 μg/ml 5-fluorocytosine, for a total of 8 treatments. After 72 hours at 28° C., the plates were scored for Agrobacterium growth.

The test system of data set [7] is four Agrobacterium strains (AGL0, LBA4404, EHA101 and EHA105). Put plainly: Agrobacterium growth assay, the four strains. Format: cell-based. As to conditions: 5-fluorocytosine up to the highest concentration tested (1000 μg/ml). As to the method: as §1
The subject of data set [8] is AGL0 mutant strain (THY−/codA+). The data set is described as follows: Growth of AGL0 THY−/codA+ on 5-fluorocytosine. Format: cell-based, Agrobacterium. As to the method:
as §4

The test system of a further data set is AGL0 THY−. The data set is described as follows: Agrobacterium growth assay on solid medium, thymidine auxotroph AGL0 THY−. Format: cell-based. As to conditions: thy 50 mg/l, 5-fluorouracil 0 μg/ml, after 24 hours. As to the method:
as §3

SMILES strings stand for the structures.

In the case of `Nc1nc(=O)[nH]cc1F` [5-fluorocytosine], the Growth score entry in [1] (500 μg/ml 5-fluorocytosine), in [1] (1000 μg/ml 5-fluorocytosine), in [2] (500 μg/ml 5-fluorocytosine), in data set [2] (1000 μg/ml 5-fluorocytosine), in data set [3] (500 μg/ml 5-fluorocytosine) and in data set [3] (1000 μg/ml 5-fluorocytosine) was “+++” each time. Further, the Growth score entry is on record as “+++” in [6] (AGL0 plated at 1 × 10^4, 500 μg/ml 5-fluorocytosine, after 3 days); “+++” in data set [6] (AGL0 plated at 1 × 10^4, 1000 μg/ml 5-fluorocytosine, after 3 days); “+++++” in [6] (AGL0 plated at 4 × 10^7, 500 μg/ml 5-fluorocytosine, after 3 days); “+++++” in data set [6] (AGL0 plated at 4 × 10^7, 1000 μg/ml 5-fluorocytosine, after 3 days). Also, the “PHH5G: embryos producing a callus response / embryos plated” value is reported as 12/50 in [4] (100 μg/ml 5-fluorocytosine), 18/50 in data set [4] (250 μg/ml 5-fluorocytosine) and 8/25 in data set [4] (400 μg/ml 5-fluorocytosine). In addition, the “Embryo with culture - Response (callus initiation frequency)” value in data set [4] (100 μg/ml 5-fluorocytosine) is reported as 24%; in data set [4] (250 μg/ml 5-fluorocytosine) it was 36%; in data set [4] (400 μg/ml 5-fluorocytosine), 32%; in data set [5] (100 μg/ml 5-fluorocytosine) it was 64%; in [5] (250 μg/ml 5-fluorocytosine) it was 68%; in [5] (400 μg/ml 5-fluorocytosine), 68%. For the same compound, the “Callus initiation frequency or callus growth rates vs no 5-fluorocytosine” value in data set [4] (inbred PHH5G, 100, 250 or 400 μg/ml 5-fluorocytosine, 3 weeks) is “no discernible differences”; in [5] (inbred printed as HC96, 100, 250 or 400 μg/ml 5-fluorocytosine, 3 weeks), “no discernible differences”. The “HC69: embryos producing a callus response / embryos plated” value in data set [5] (100 μg/ml 5-fluorocytosine) was 32/50; in data set [5] (250 μg/ml 5-fluorocytosine) it was 34/50; in data set [5] (400 μg/ml 5-fluorocytosine), 34/50. Further, the Growth result in data set [6] (wild-type AGL0, 100, 200 or 300 μg/ml 5-fluorocytosine, +/− thymidine, 72 hours at 28° C.) is listed as “grew under all 5-fluorocytosine concentrations”; in data set [8] (100, 200 or 300 μg/ml 5-fluorocytosine, thymidine present, 72 hours at 28° C.), “did not grow”. For the same compound, in [7], the Growth inhibition entry is “no apparent growth inhibition”.

`Cc1cn([C@H]2C[C@H](O)[C@@H](CO)O2)c(=O)[nH]c1=O` [thy, thymidine]: the Growth score result is reported as “+++” in the data set with AGL0 THY− (AGL0 THY- 1 x 10^6); “+++” with AGL0 THY− (AGL0 THY- 1 x 10^8); “+++” in [6] (AGL0 1 x 10^6, thy 50 mg/l, 5-fluorouracil 0 μg/ml, after 24 hours); “+++” in [6] (AGL0 1 x 10^8, thy 50 mg/l, 5-fluorouracil 0 μg/ml, after 24 hours). The Growth entry in data set [8] (50 mg/l thymidine, no 5-fluorocytosine, 72 hours) is reported as “confluent lawn of colonies”.
